Key:
Assay type in all cases: in vivo
Details in all cases: Preemergence, scale 0 to 100
[1] = test system: crabgrass, large (large crabgrass, Digitaria sanguinalis); test: Test E pre-/postemergence: crabgrass, large
Source text: (§1) Seeds of plant species selected from corn (Zea mays), soybean (Glycine max), velvetleaf (Abutilon theophrasti), lambsquarters (Chenopodium album), poinsettia, wild (wild poinsettia, Euphorbia heterophylla), pigweed, palmer (palmer pigweed, Amaranthus palmeri), waterhemp (common waterhemp, Amaranthus rudis), smartweed (ladysthumb smartweed, Polygonum persicaria), surinam grass (Brachiaria decumbens), crabgrass, large (large crabgrass, Digitaria sanguinalis), crabgrass, Brazil (Brazilian crabgrass, Digitaria horizontalis), panicum, fall (fall panicum, Panicum dichotomiflorum), foxtail, giant (giant foxtail, Setaria faberii), foxtail, green (green foxtail, Setaria viridis), goosegrass (Eleusine indica), johnsongrass (Sorghum halepense), ragweed (common ragweed, Ambrosia elation), barnyardgrass (Echinochloa crus-galli), sandbur (southern sandbur, Cenchrus echinatus), arrowleaf sida (Sida rhombifolia), ryegrass, Italian (Italian ryegrass, Lolium multiflorum), dayflower, (VA) (Virginia dayflower, Commelina virginica), field bindweed (Convolvulus arvensis), cocklebur (common cocklebur, Xanthium strumarium), morningglory (Ipomoea coccinea), nightshade (eastern black nightshade, Solanum ptycanthum), kochia (Kochia scoparia), nutsedge, yellow (yellow nutsedge, Cyperus esculentus) and beggarticks (hairy beggarticks, Bidens pilosa) were planted into a silt loam soil and treated preemergence with test chemicals formulated in a non-phytotoxic solvent mixture which included a surfactant. At the same time, plants selected from these crop and weed species were planted in pots containing a growing medium comprising spaghnum peat moss, vermiculite, wetting agent and starter nutrients and treated with postemergence applications of some of the test chemicals formulated in the same manner. Plants ranged in height from 2 to 18 cm for postemergence treatments (1- to 4-leaf stage).
(§2) Treated plants and controls were maintained in a greenhouse for 14 to 21 days, after which time all species were compared to controls and visually evaluated. Plant response ratings, summarized in Table E, are based on a scale of 0 to 100 where 0 is no effect and 100 is complete control. A dash (-) response means no test result.

[2] = test system: nutsedge, yellow (yellow nutsedge, Cyperus esculentus); test: Test E pre-/postemergence: nutsedge, yellow
Source text: as §1, §2

[3] = test system: pigweed, palmer (palmer pigweed, Amaranthus palmeri); test: Test E pre-/postemergence: pigweed, palmer
Source text: as §1, §2

[4] = test system: ryegrass, Italian (Italian ryegrass, Lolium multiflorum); test: Test E pre-/postemergence: ryegrass, Italian
Source text: as §1, §2

[5] = test system: sandbur (southern sandbur, Cenchrus echinatus); test: Test E pre-/postemergence: sandbur
Source text: as §1, §2

[6] = test system: dayflower, (VA) (Virginia dayflower, Commelina virginica); test: Test E pre-/postemergence: dayflower, (VA)
Source text: as §1, §2

[7] = test system: soybean (Glycine max); test: Test E pre-/postemergence: soybean
Source text: as §1, §2

[8] = test system: kochia (Kochia scoparia); test: Test E pre-/postemergence: kochia
Source text: as §1, §2

[9] = test system: cocklebur (common cocklebur, Xanthium strumarium); test: Test E pre-/postemergence: cocklebur
Source text: as §1, §2

[10] = test system: field bindweed (Convolvulus arvensis); test: Test E pre-/postemergence: field bindweed
Source text: as §1, §2

[11] = test system: beggarticks (hairy beggarticks, Bidens pilosa); test: Test E pre-/postemergence: beggarticks
Source text: as §1, §2

[12] = test system: johnsongrass (Sorghum halepense); test: Test E pre-/postemergence: johnsongrass
Source text: as §1, §2

[13] = test system: corn (Zea mays); test: Test E pre-/postemergence: corn
Source text: as §1, §2

COc1nn(-c2ccc(C(F)(F)F)cc2)nc1Cc1ccnc(C(F)(F)F)c1 [Compound 15, 4-[[5-methoxy-2-[4-(trifluoromethyl)phenyl]-2H-1,2,3-triazol-4-yl]methyl]-2-(trifluoromethyl)pyridine]
Plant response rating: Crabgrass, Large ([1]; 16 g ai/ha): 15 | Plant response rating: Crabgrass, Large ([1]; 31 g ai/ha): 90 | Plant response rating: Crabgrass, Large ([1]; 62 g ai/ha): 100 | Plant response rating: Crabgrass, Large ([1]; 125 g ai/ha): 100 | Plant response rating: Crabgrass, Large ([1]; 250 g ai/ha): 100 | Plant response rating: Nutsedge, Yellow ([2]; 16 g ai/ha): 0 | Plant response rating: Nutsedge, Yellow ([2]; 31 g ai/ha): 0 | Plant response rating: Nutsedge, Yellow ([2]; 62 g ai/ha): 0 | Plant response rating: Nutsedge, Yellow ([2]; 125 g ai/ha): 0 | Plant response rating: Nutsedge, Yellow ([2]; 250 g ai/ha): 0 | Plant response rating: Pigweed, Palmer ([3]; 16 g ai/ha): 100 | Plant response rating: Pigweed, Palmer ([3]; 31 g ai/ha): 100 | Plant response rating: Pigweed, Palmer ([3]; 62 g ai/ha): 100 | Plant response rating: Pigweed, Palmer ([3]; 125 g ai/ha): 100 | Plant response rating: Pigweed, Palmer ([3]; 250 g ai/ha): 100 | Plant response rating: Ryegrass, Italian ([4]; 16 g ai/ha): 20 | Plant response rating: Ryegrass, Italian ([4]; 31 g ai/ha): 75 | Plant response rating: Ryegrass, Italian ([4]; 62 g ai/ha): 80 | Plant response rating: Ryegrass, Italian ([4]; 125 g ai/ha): 100 | Plant response rating: Ryegrass, Italian ([4]; 250 g ai/ha): 100 | Plant response rating: Sandbur ([5]; 16 g ai/ha): 5 | Plant response rating: Sandbur ([5]; 31 g ai/ha): 25 | Plant response rating: Sandbur ([5]; 62 g ai/ha): 50 | Plant response rating: Sandbur ([5]; 125 g ai/ha): 90 | Plant response rating: Sandbur ([5]; 250 g ai/ha): 100 | Plant response rating: Dayflower, VA ([6]; 16 g ai/ha): 5 | Plant response rating: Dayflower, VA ([6]; 31 g ai/ha): 10 | Plant response rating: Dayflower, VA ([6]; 62 g ai/ha): 25 | Plant response rating: Dayflower, VA ([6]; 125 g ai/ha): 60 | Plant response rating: Dayflower, VA ([6]; 250 g ai/ha): 95 | Plant response rating: Soybean ([7]; 16 g ai/ha): 0 | Plant response rating: Soybean ([7]; 31 g ai/ha): 0 | Plant response rating: Soybean ([7]; 62 g ai/ha): 20 | Plant response rating: Soybean ([7]; 125 g ai/ha): 35 | Plant response rating: Soybean ([7]; 250 g ai/ha): 35 | Plant response rating: Kochia ([8]; 16 g ai/ha): 35 | Plant response rating: Kochia ([8]; 31 g ai/ha): 65 | Plant response rating: Kochia ([8]; 62 g ai/ha): 90 | Plant response rating: Kochia ([8]; 125 g ai/ha): 100 | Plant response rating: Kochia ([8]; 250 g ai/ha): 100 | Plant response rating: Cocklebur ([9]; 31 g ai/ha): 0 | Plant response rating: Cocklebur ([9]; 62 g ai/ha): 0 | Plant response rating: Cocklebur ([9]; 250 g ai/ha): 20 | Plant response rating: Field Bindweed ([10]; 16 g ai/ha): 5 | Plant response rating: Field Bindweed ([10]; 31 g ai/ha): 5 | Plant response rating: Field Bindweed ([10]; 62 g ai/ha): 40 | Plant response rating: Field Bindweed ([10]; 125 g ai/ha): 60 | Plant response rating: Field Bindweed ([10]; 250 g ai/ha): 95 | Plant response rating: Beggarticks ([11]; 16 g ai/ha): 5 | Plant response rating: Beggarticks ([11]; 31 g ai/ha): 5 | Plant response rating: Beggarticks ([11]; 62 g ai/ha): 50 | Plant response rating: Beggarticks ([11]; 125 g ai/ha): 80 | Plant response rating: Beggarticks ([11]; 250 g ai/ha): 100 | Plant response rating: Johnsongrass ([12]; 16 g ai/ha): 10 | Plant response rating: Johnsongrass ([12]; 31 g ai/ha): 65 | Plant response rating: Johnsongrass ([12]; 62 g ai/ha): 65 | Plant response rating: Johnsongrass ([12]; 125 g ai/ha): 98 | Plant response rating: Johnsongrass ([12]; 250 g ai/ha): 100 | Plant response rating: Corn ([13]; 16 g ai/ha): 0 | Plant response rating: Corn ([13]; 31 g ai/ha): 0 | Plant response rating: Corn ([13]; 62 g ai/ha): 0 | Plant response rating: Corn ([13]; 125 g ai/ha): 5 | Plant response rating: Corn ([13]; 250 g ai/ha): 10

Cc1nn(-c2ccc(C(F)(F)F)cn2)nc1Oc1ccnc(C(F)(F)F)c1 [Compound 23]
Plant response rating: Crabgrass, Large ([1]; 16 g ai/ha): 5 | Plant response rating: Crabgrass, Large ([1]; 31 g ai/ha): 5 | Plant response rating: Crabgrass, Large ([1]; 62 g ai/ha): 35 | Plant response rating: Crabgrass, Large ([1]; 125 g ai/ha): 70 | Plant response rating: Crabgrass, Large ([1]; 250 g ai/ha): 100 | Plant response rating: Nutsedge, Yellow ([2]; 16 g ai/ha): 0 | Plant response rating: Nutsedge, Yellow ([2]; 31 g ai/ha): 0 | Plant response rating: Nutsedge, Yellow ([2]; 62 g ai/ha): 0 | Plant response rating: Nutsedge, Yellow ([2]; 125 g ai/ha): 15 | Plant response rating: Nutsedge, Yellow ([2]; 250 g ai/ha): 15 | Plant response rating: Pigweed, Palmer ([3]; 16 g ai/ha): 90 | Plant response rating: Pigweed, Palmer ([3]; 31 g ai/ha): 90 | Plant response rating: Pigweed, Palmer ([3]; 62 g ai/ha): 100 | Plant response rating: Pigweed, Palmer ([3]; 125 g ai/ha): 100 | Plant response rating: Pigweed, Palmer ([3]; 250 g ai/ha): 100 | Plant response rating: Ryegrass, Italian ([4]; 16 g ai/ha): 0 | Plant response rating: Ryegrass, Italian ([4]; 31 g ai/ha): 0 | Plant response rating: Ryegrass, Italian ([4]; 62 g ai/ha): 0 | Plant response rating: Ryegrass, Italian ([4]; 125 g ai/ha): 0 | Plant response rating: Ryegrass, Italian ([4]; 250 g ai/ha): 10 | Plant response rating: Sandbur ([5]; 16 g ai/ha): 0 | Plant response rating: Sandbur ([5]; 31 g ai/ha): 0 | Plant response rating: Sandbur ([5]; 62 g ai/ha): 0 | Plant response rating: Sandbur ([5]; 125 g ai/ha): 25 | Plant response rating: Sandbur ([5]; 250 g ai/ha): 65 | Plant response rating: Dayflower, VA ([6]; 16 g ai/ha): 0 | Plant response rating: Dayflower, VA ([6]; 31 g ai/ha): 0 | Plant response rating: Dayflower, VA ([6]; 62 g ai/ha): 0 | Plant response rating: Dayflower, VA ([6]; 125 g ai/ha): 5 | Plant response rating: Dayflower, VA ([6]; 250 g ai/ha): 5 | Plant response rating: Soybean ([7]; 16 g ai/ha): 0 | Plant response rating: Soybean ([7]; 31 g ai/ha): 0 | Plant response rating: Soybean ([7]; 62 g ai/ha): 0 | Plant response rating: Soybean ([7]; 125 g ai/ha): 0 | Plant response rating: Soybean ([7]; 250 g ai/ha): 20 | Plant response rating: Kochia ([8]; 16 g ai/ha): 0 | Plant response rating: Kochia ([8]; 31 g ai/ha): 0 | Plant response rating: Kochia ([8]; 62 g ai/ha): 60 | Plant response rating: Kochia ([8]; 125 g ai/ha): 100 | Plant response rating: Kochia ([8]; 250 g ai/ha): 100 | Plant response rating: Cocklebur ([9]; 16 g ai/ha): 0 | Plant response rating: Cocklebur ([9]; 31 g ai/ha): 0 | Plant response rating: Cocklebur ([9]; 62 g ai/ha): 0 | Plant response rating: Cocklebur ([9]; 125 g ai/ha): 0 | Plant response rating: Cocklebur ([9]; 250 g ai/ha): 0 | Plant response rating: Field Bindweed ([10]; 16 g ai/ha): 0 | Plant response rating: Field Bindweed ([10]; 31 g ai/ha): 0 | Plant response rating: Field Bindweed ([10]; 62 g ai/ha): 0 | Plant response rating: Field Bindweed ([10]; 125 g ai/ha): 0 | Plant response rating: Field Bindweed ([10]; 250 g ai/ha): 70 | Plant response rating: Johnsongrass ([12]; 16 g ai/ha): 0 | Plant response rating: Johnsongrass ([12]; 31 g ai/ha): 0 | Plant response rating: Johnsongrass ([12]; 62 g ai/ha): 0 | Plant response rating: Johnsongrass ([12]; 125 g ai/ha): 20 | Plant response rating: Johnsongrass ([12]; 250 g ai/ha): 60 | Plant response rating: Corn ([13]; 16 g ai/ha): 0 | Plant response rating: Corn ([13]; 31 g ai/ha): 0 | Plant response rating: Corn ([13]; 62 g ai/ha): 0 | Plant response rating: Corn ([13]; 125 g ai/ha): 0 | Plant response rating: Corn ([13]; 250 g ai/ha): 20
